Data as given in patent publication US12310975B2, “Modulators of BCL6 proteolysis and associated methods of use” (Arvinas Operations, Inc., priority 2019, dated 2025).

Key:
[1] = target: T1, BCL6 (Homo sapiens (Human), UniProt P41182); experiment: BCL6 TR-FRET assay (BCL6-Avitag-Biotin / BCoR-Cy5 peptide); type: binding; conditions: for IC50: read-out: IC50
Summary of the method: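 TR-FRET displacement assay: biotinylated His-SUMO-BCL6-Avitag (2 nM) pre-incubated 30 min at room temperature with compound (12-point 3-fold titration), then BCoR-Cy5 peptide (100 nM) and Eu-streptavidin (2 nM) added. Buffer: 50 mM HEPES pH 7.5, 125 mM NaCl, 0.01% Triton X, glutathione or DTT, 0.03% BSA. Read after 2 h.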

[2] = target: T1, BCL6; experiment: Immunofluorescence high content imaging of BCL6 degradation in T47D cells; type: cell-based
Summary of the method: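 T47D cells were treated for 3 days at 37 °C with 11-point 3-fold dilutions of bifunctional degrader (final top 0.1 or 1 μM). BCL6 was detected by immunofluorescence after PFA fixation, with Hoechst and cell mask counterstains, and imaged at 10×, 4 fields/well.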

SMILES	EC50 [1]	IC50 [2]	Dmax ([2]; T47D)	IC50 ([2]; T47D cells)	Dmax ([2]; T47D cells)	IC50 [1]
CNC(=O)COc1cc2cc(Nc3nc(N4CCOC(CN5CCN(c6cccc7c6C(=O)N(C6CCC(=O)NC6=O)C7=O)CC5)C4)ncc3Cl)ccc2n(C)c1=O (stereo not drawn) [compound 271, 2-{[6-({5-chloro-2-[2-({4-[2-(2,6-dioxopiperidin-3-yl)-1,3-dioxo-2,3-dihydro-1H-isoindol-4-yl]piperazin-1-yl}methyl)morpholin-4-yl]pyrimidin-4-yl}amino)-1-methyl-2-oxo-1,2-dihydroquinolin-3-yl]oxy}-N-methylacetamide]	10 to 50 nM	50 to 100 nM	50 to 70%	–	–	–
CNC(=O)COc1cc2cc(Nc3nc(N4CCOC(CN5CCN(c6ccc7c(c6)C(=O)N(C6CCC(=O)NC6=O)C7=O)CC5)C4)ncc3Cl)ccc2n(C)c1=O (stereo not drawn) [compound 272, 2-{[6-({5-chloro-2-[2-({4-[2-(2,6-dioxopiperidin-3-yl)-1,3-dioxo-2,3-dihydro-1H-isoindol-5-yl]piperazin-1-yl}methyl)morpholin-4-yl]pyrimidin-4-yl}amino)-1-methyl-2-oxo-1,2-dihydroquinolin-3-yl]oxy}-N-methylacetamide]	< 10 nM	10 to 50 nM	50 to 70%	–	–	–
CNC(=O)COc1cc2cc(Nc3nc(N4CCN(CC5CCN(c6cnc(C(=O)NC7CCC(=O)NC7=O)nc6)CC5)CC4)ncc3Cl)ccc2n(C)c1=O (stereo not drawn) [compound 273, 5-[4-({4-[5-chloro-4-({1-methyl-3-[(methylcarbamoyl)methoxy]-2-oxo-1,2-dihydroquinolin-6-yl}amino)pyrimidin-2-yl]piperazin-1-yl}methyl)piperidin-1-yl]-N-(2,6-dioxopiperidin-3-yl)pyrimidine-2-carboxamide]	10 to 50 nM	50 to 100 nM	< 50%	–	–	–
CNC(=O)C1Oc2cc(Nc3nc(N4CCN(C(C)(C)C5CCN(c6ccc7c(c6)C(=O)N(C6CCC(=O)NC6=O)C7=O)CC5)CC4)ncc3Cl)ccc2N(C)C1=O (stereo not drawn) [compound 274, 7-({5-chloro-2-[4-(2-{1-[2-(2,6-dioxopiperidin-3-yl)-1,3-dioxo-2,3-dihydro-1H-isoindol-5-yl]piperidin-4-yl}propan-2-yl)piperazin-1-yl]pyrimidin-4-yl}amino)-N,4-dimethyl-3-oxo-3,4-dihydro-2H-1,4-benzoxazine-2-carboxamide]	> 100 nM	≥ 100 nM	–	–	–	–
CNC(=O)COc1cc2cc(Nc3nc(N4CCN(CC5CCN(c6cccc(F)c6C(=O)NC6CCC(=O)NC6=O)CC5)CC4)ncc3Cl)ccc2n(C)c1=O (stereo not drawn) [compound 275, 2-[4-({4-[5-chloro-4-({1-methyl-3-[(methylcarbamoyl)methoxy]-2-oxo-1,2-dihydroquinolin-6-yl}amino)pyrimidin-2-yl]piperazin-1-yl}methyl)piperidin-1-yl]-N-(2,6-dioxopiperidin-3-yl)-6-fluorobenzamide]	10 to 50 nM	< 10 nM	< 50%	–	–	–
CNC(=O)COc1cc2cc(Nc3nc(N4CCN(CC5CCN(c6ccc(C(=O)NC7CCC(=O)NC7=O)cc6)CC5)CC4)ncc3Cl)ccc2n(C)c1=O (stereo not drawn) [compound 276, 4-[4-({4-[5-chloro-4-({1-methyl-3-[(methylcarbamoyl)methoxy]-2-oxo-1,2-dihydroquinolin-6-yl}amino)pyrimidin-2-yl]piperazin-1-yl}methyl)piperidin-1-yl]-N-(2,6-dioxopiperidin-3-yl)benzamide]	< 10 nM	≥ 100 nM	< 50%	–	–	–
CNC(=O)COc1cc2cc(Nc3nc(N4CCN(CC5CCN(c6ccc(F)c(C(=O)NC7CCC(=O)NC7=O)c6)CC5)CC4)ncc3Cl)ccc2n(C)c1=O (stereo not drawn) [compound 277, 5-[4-({4-[5-chloro-4-({1-methyl-3-[(methylcarbamoyl)methoxy]-2-oxo-1,2-dihydroquinolin-6-yl}amino)pyrimidin-2-yl]piperazin-1-yl}methyl)piperidin-1-yl]-N-(2,6-dioxopiperidin-3-yl)-2-fluorobenzamide]	< 10 nM	10 to 50 nM	< 50%	–	–	–
CNC(=O)COc1cc2cc(Nc3nc(N4CCN(CC5CCN(c6ccc(C(=O)NC7CCC(=O)NC7=O)nn6)CC5)CC4)ncc3Cl)ccc2n(C)c1=O (stereo not drawn) [compound 278, 6-[4-({4-[5-chloro-4-({1-methyl-3-[(methylcarbamoyl)methoxy]-2-oxo-1,2-dihydroquinolin-6-yl}amino)pyrimidin-2-yl]piperazin-1-yl}methyl)piperidin-1-yl]-N-(2,6-dioxopiperidin-3-yl)pyridazine-3-carboxamide]	< 10 nM	50 to 100 nM	< 50%	–	–	–
CNC(=O)COc1cc2cc(Nc3nc(N4CCN(C(C)(C)CN5CCN(c6ccc7c(c6)C(=O)N(C6CCC(=O)NC6=O)C7=O)CC5)CC4)ncc3Cl)ccc2n(C)c1=O (stereo not drawn) [compound 279, 2-{[6-({5-chloro-2-[4-(1-{4-[2-(2,6-dioxopiperidin-3-yl)-1,3-dioxo-2,3-dihydro-1H-isoindol-5-yl]piperazin-1-yl}-2-methylpropan-2-yl)piperazin-1-yl]pyrimidin-4-yl}amino)-1-methyl-2-oxo-1,2-dihydroquinolin-3-yl]oxy}-N-methylacetamide]	10 to 50 nM	10 to 50 nM	50 to 70%	–	–	–
CNC(=O)COc1cc2cc(Nc3nc(N4CCN(CC(C)(C)N5CCN(c6ccc7c(c6)C(=O)N(C6CCC(=O)NC6=O)C7=O)CC5)CC4)ncc3Cl)ccc2n(C)c1=O (stereo not drawn) [compound 280, 2-{[6-({5-chloro-2-[4-(2-{4-[2-(2,6-dioxopiperidin-3-yl)-1,3-dioxo-2,3-dihydro-1H-isoindol-5-yl]piperazin-1-yl}-2-methylpropyl)piperazin-1-yl]pyrimidin-4-yl}amino)-1-methyl-2-oxo-1,2-dihydroquinolin-3-yl]oxy}-N-methylacetamide]	10 to 50 nM	10 to 50 nM	50 to 70%	–	–	–

Further lines, results first:

EC50 [1]	IC50 [2]	Dmax ([2]; T47D)	IC50 ([2]; T47D cells)	Dmax ([2]; T47D cells)	IC50 [1]	SMILES
10 to 50 nM	< 10 nM	< 50%	–	–	–	CNC(=O)COc1cc2cc(Nc3nc(N4CCN(CC5CCN(c6cnc(C(=O)NC7CCC(=O)NC7=O)cn6)CC5)CC4)ncc3Cl)ccc2n(C)c1=O (stereo not drawn) [compound 281, 5-[4-({4-[5-chloro-4-({1-methyl-3-[(methylcarbamoyl)methoxy]-2-oxo-1,2-dihydroquinolin-6-yl}amino)pyrimidin-2-yl]piperazin-1-yl}methyl)piperidin-1-yl]-N-(2,6-dioxopiperidin-3-yl)pyrazine-2-carboxamide]
> 100 nM	–	–	≥ 100 nM	–	–	CN1C(=O)CCc2cc(Nc3nc(N4CCN(CC5CCN(c6ccc7c(c6)C(=O)N(C6CCC(=O)NC6=O)C7=O)CC5)CC4)ncc3Cl)ccc21 (stereo not drawn) [compound 369, 5-{4-[(4-{5-chloro-4-[(1-methyl-2-oxo-1,2,3,4-tetrahydroquinolin-6-yl)amino]pyrimidin-2-yl}piperazin-1-yl)methyl]piperidin-1-yl}-2-(2,6-dioxopiperidin-3-yl)-2,3-dihydro-1H-isoindole-1,3-dione]
> 100 nM	–	–	≥ 100 nM	< 50%	–	CN1C(=O)CCc2cc(Nc3nc(N4CCN(CC5CCN(c6cccc7c6C(=O)N(C6CCC(=O)NC6=O)C7=O)CC5)CC4)ncc3Cl)ccc21 (stereo not drawn) [compound 378, 4-{4-[(4-{5-chloro-4-[(1-methyl-2-oxo-1,2,3,4-tetrahydroquinolin-6-yl)amino]pyrimidin-2-yl}piperazin-1-yl)methyl]piperidin-1-yl}-2-(2,6-dioxopiperidin-3-yl)-2,3-dihydro-1H-isoindole-1,3-dione]
–	–	50 to 70%	–	–	< 10 nM	CNC(=O)COc1cc2cc(Nc3nc(N4CC5(CCC(OC6CCN(c7ccc8c(c7)C(=O)N(C7CCC(=O)NC7=O)C8=O)CC6)CC5)C4)ncc3Cl)ccc2n(C(C)C)c1=O (stereo not drawn) [compound 444, 2-{[6-({5-chloro-2-[7-({1-[2-(2,6-dioxopiperidin-3-yl)-1,3-dioxo-2,3-dihydro-1H-isoindol-5-yl]piperidin-4-yl}oxy)-2-azaspiro[3.5]nonan-2-yl]pyrimidin-4-yl}amino)-2-oxo-1-(propan-2-yl)-1,2-dihydroquinolin-3-yl]oxy}-N-methylacetamide]
–	–	≥ 70%	–	–	< 10 nM	CNC(=O)COc1cc2cc(Nc3nc(N4CC5(CCC(OC6CCN(c7cccc8c7C(=O)N(C7CCC(=O)NC7=O)C8=O)CC6)CC5)C4)ncc3Cl)ccc2n(C(C)C)c1=O (stereo not drawn) [compound 445, 2-{[6-({5-chloro-2-[7-({1-[2-(2,6-dioxopiperidin-3-yl)-1,3-dioxo-2,3-dihydro-1H-isoindol-4-yl]piperidin-4-yl}oxy)-2-azaspiro[3.5]nonan-2-yl]pyrimidin-4-yl}amino)-2-oxo-1-(propan-2-yl)-1,2-dihydroquinolin-3-yl]oxy}-N-methylacetamide]
–	–	≥ 70%	–	–	< 10 nM	CNC(=O)COc1cc2cc(Nc3nc(N4CCC(OC5CC6(CCN(c7cccc8c7CN(C7CCC(=O)NC7=O)C8=O)CC6)C5)CC4)ncc3Cl)ccc2n(C(C)C)c1=O (stereo not drawn) [compound 446, 2-{[6-({5-chloro-2-[4-({7-[2-(2,6-dioxopiperidin-3-yl)-1-oxo-2,3-dihydro-1H-isoindol-4-yl]-7-azaspiro[3.5]nonan-2-yl}oxy)piperidin-1-yl]pyrimidin-4-yl}amino)-2-oxo-1-(propan-2-yl)-1,2-dihydroquinolin-3-yl]oxy}-N-methylacetamide]
–	–	≥ 70%	–	–	10 to 50 nM	CNC(=O)COc1cc2cc(Nc3nc(N4CCC5(CC4)CN(CC4CCN(c6ccc(C(=O)NC7CCC(=O)NC7=O)c(OC)c6)CC4)C5)ncc3Cl)ccc2n(C(C)C)c1=O (stereo not drawn) [compound 447, 4-[4-({7-[5-chloro-4-({3-[(methylcarbamoyl)methoxy]-2-oxo-1-(propan-2-yl)-1,2-dihydroquinolin-6-yl}amino)pyrimidin-2-yl]-2,7-diazaspiro[3.5]nonan-2-yl}methyl)piperidin-1-yl]-N-(2,6-dioxopiperidin-3-yl)-2-methoxybenzamide]
